The values that follow come from US10287255B2, “Compounds as histone deacetylase 6 inhibitors and pharmaceutical compositions comprising the same” (CHONG KUN DANG PHARMACEUTICAL CORP., priority 2014, dated 2019).

Assay [1] concerns the target T1, human recombinant HDAC6 (Homo sapiens, UniProt Q9UBN7).
T1 construct: purchased Calbiochem 382180
T1 sequence (Q9UBN7 1-1215): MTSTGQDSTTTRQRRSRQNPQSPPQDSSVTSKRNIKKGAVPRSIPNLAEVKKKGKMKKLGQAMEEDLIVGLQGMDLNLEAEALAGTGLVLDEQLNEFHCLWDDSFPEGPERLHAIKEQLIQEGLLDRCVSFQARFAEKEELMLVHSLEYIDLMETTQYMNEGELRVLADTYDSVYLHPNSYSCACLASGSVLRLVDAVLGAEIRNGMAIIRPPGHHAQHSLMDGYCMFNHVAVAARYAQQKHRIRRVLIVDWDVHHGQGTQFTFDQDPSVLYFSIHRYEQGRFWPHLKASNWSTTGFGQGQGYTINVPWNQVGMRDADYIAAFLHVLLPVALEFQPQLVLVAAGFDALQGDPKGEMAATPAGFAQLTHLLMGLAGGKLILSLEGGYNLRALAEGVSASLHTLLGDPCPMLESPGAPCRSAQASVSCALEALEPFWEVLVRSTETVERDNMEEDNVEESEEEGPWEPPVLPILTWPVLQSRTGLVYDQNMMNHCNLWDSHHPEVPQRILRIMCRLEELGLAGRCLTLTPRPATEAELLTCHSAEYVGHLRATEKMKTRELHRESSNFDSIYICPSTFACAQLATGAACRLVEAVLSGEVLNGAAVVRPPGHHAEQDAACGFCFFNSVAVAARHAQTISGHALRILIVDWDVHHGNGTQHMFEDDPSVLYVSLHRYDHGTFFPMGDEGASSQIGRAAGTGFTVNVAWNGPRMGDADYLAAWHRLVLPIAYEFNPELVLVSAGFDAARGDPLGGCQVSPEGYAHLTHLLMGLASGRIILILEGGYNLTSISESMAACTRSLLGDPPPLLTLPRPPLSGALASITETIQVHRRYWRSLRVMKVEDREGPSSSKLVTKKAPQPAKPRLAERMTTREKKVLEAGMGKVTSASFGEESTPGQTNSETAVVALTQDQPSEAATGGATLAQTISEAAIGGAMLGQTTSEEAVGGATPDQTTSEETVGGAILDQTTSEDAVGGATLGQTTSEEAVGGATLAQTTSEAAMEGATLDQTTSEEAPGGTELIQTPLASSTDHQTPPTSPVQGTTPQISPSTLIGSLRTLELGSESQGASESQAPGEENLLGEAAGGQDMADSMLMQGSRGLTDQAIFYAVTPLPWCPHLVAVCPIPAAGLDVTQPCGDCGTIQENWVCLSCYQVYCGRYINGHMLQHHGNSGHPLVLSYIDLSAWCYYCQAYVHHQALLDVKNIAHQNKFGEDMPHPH
In words: HDAC6 enzyme activity inhibition assay (in vitro, fluorimetric). Format: biochemical. The conditions noted are these: for HDAC6 selectivity (fold): HDAC6 selectivity over HDAC1; for IC50: human recombinant HDAC6, fluorimetric kit, same protocol as HDAC1. The method, boiled down:
(§1)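 Human recombinant enzyme (0.3 μg for HDAC1) reacted with 10 μM Fluor de Lys-SIRT1 substrate and 5-fold compound dilutions at 30 °C for 60 min, then developer for 30 min. Fluorescence read at Ex 360/Em 460; IC50 calculated. HDAC6 run by the same protocol.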

Assay [2] concerns the target T2, human recombinant HDAC1 (Homo sapiens, UniProt Q13547).
T2 construct: purchased Enzo Life Science BML-SE456
In words: HDAC1 enzyme activity inhibition assay (in vitro, fluorimetric). In kind it is biochemical. As to conditions: human recombinant HDAC1, fluorimetric kit, 30° C. 60 minutes. Put shortly:
as §1

The structures appear in SMILES notation. Bounds are passed on as bounds.

T2 sequence (Q13547 whole entry): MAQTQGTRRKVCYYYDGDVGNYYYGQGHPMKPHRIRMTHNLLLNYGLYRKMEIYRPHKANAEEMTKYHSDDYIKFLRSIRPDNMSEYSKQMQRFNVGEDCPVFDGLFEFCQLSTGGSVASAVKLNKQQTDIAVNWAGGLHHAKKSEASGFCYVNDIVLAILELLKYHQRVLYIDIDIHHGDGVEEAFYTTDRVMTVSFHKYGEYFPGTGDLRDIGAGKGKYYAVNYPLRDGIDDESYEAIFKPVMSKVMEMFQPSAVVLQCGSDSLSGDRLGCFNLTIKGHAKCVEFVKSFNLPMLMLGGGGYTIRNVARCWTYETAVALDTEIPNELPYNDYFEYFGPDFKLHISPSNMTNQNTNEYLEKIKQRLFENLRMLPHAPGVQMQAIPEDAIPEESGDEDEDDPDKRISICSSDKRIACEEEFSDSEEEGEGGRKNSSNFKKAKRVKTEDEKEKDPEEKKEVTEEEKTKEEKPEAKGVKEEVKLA

Turning to `C[C@@H]1CN(Cc2ccc(C(=O)NO)cc2)C[C@H](C)N1C(=O)C(C)(C)C` [Compound 292, 4-(((3R,5S)-3,5-dimethyl-4-pivaloylpiperazin-1-yl)methyl)-N-hydroxybenzamide], in assay [1], the “HDAC6 selectivity (fold)” value was determined as 76 fold and the IC50 stood at 74 nM. Also, the IC50 in assay [2] is 5600 nM.
`C[C@@H]1CN(C(=O)c2cccs2)C[C@H](C)N1Cc1ccc(C(=O)NO)cc1` [Compound 114, 4-(((2S,6R)-2,6-dimethyl-4-(thiophene-2-carbonyl)piperazin-1-yl)methyl)-N-hydroxybenzamide]: the “HDAC6 selectivity (fold)” value in assay [1] was found to be 13 fold. In addition, the IC50 in assay [1] was determined as 185 nM; in assay [2], 2400 nM.
As for `C[C@@H]1CN(Cc2ccc(C(=O)NO)cc2)C[C@H](C)N1C(=O)c1cccc(CN2CCCC2)c1` [Compound 423, 4-(((3R,5S)-3,5-dimethyl-4-(3-(pyrrolidin-1-ylmethyl)benzoyl)piperazin-1-yl)methyl)-N-hydroxybenzamide], in assay [1], the “HDAC6 selectivity (fold)” value is on record as 22 fold and the IC50 amounted to 46 nM. The IC50 in assay [2] worked out at 1000 nM.
For `CCN1[C@H](C)CN(Cc2ccc(C(=O)NO)cc2)C[C@@H]1C` [Compound 147, 4-(((3R,5S)-4-ethyl-3,5-dimethylpiperazin-1-yl)methyl)-N-hydroxybenzamide] the same measures were more than 90 fold, 111 nM and more than 10000 nM.
Turning to `C[C@@H]1CN(C(=O)c2ccccc2C2=CCOCC2)C[C@H](C)N1Cc1ccc(C(=O)NO)cc1` [Compound 278, 4-(((2S,6R)-4-(2-(3,6-dihydro-2H-pyran-4-yl)benzoyl)-2,6-dimethylpiperazin-1-yl)methyl)-N-hydroxybenzamide], in assay [1], the “HDAC6 selectivity (fold)” value was found to be 16 fold and the IC50 was found to be 911 nM. The 50% inhibitory concentration (IC50) in assay [2] stood at 14400 nM.
Regarding `C[C@@H]1CN(Cc2ccc(C(=O)NO)cc2)C[C@H](C)N1Cc1ccccc1-c1cccnc1` [Compound 330, 4-(((3R,5S)-3,5-dimethyl-4-(2-(pyridin-3-yl)benzyl)piperazin-1-yl)methyl)-N-hydroxybenzamide], in assay [1], the “HDAC6 selectivity (fold)” value worked out at 749 fold and the IC50 worked out at 24 nM. Moreover, the IC50 in assay [2] came out at 18000 nM.
Turning to `CC(=O)N1[C@H](C)CN(Cc2ccc(C(=O)NO)cc2)C[C@@H]1C` [Compound 082, 4-(((3R,5S)-4-acetyl-3,5-dimethylpiperazin-1-yl)methyl)-N-hydroxybenzamide], the “HDAC6 selectivity (fold)” value in assay [1] was 369 fold. The IC50 was determined as 34 nM in assay [1] and 12500 nM in assay [2].
With `C[C@@H]1CN(Cc2ccc(C(=O)NO)cc2F)C[C@H](C)N1Cc1ccccc1` [Compound 813, 4-(((3R,5S)-4-benzyl-3,5-dimethylpiperazin-1-yl)methyl)-3-fluoro-N-hydroxybenzamide], in assay [1], the “HDAC6 selectivity (fold)” value is recorded as 1720 fold. Moreover, the IC50 worked out at 10 nM in assay [1] and 17200 nM in assay [2].
Consider `CCCC(=O)N1[C@H](C)CN(Cc2ccc(C(=O)NO)cc2)C[C@@H]1C` [Compound 294, 4-(((3R,5S)-4-butyryl-3,5-dimethylpiperazin-1-yl)methyl)-N-hydroxybenzamide], for which, in assay [1], the “HDAC6 selectivity (fold)” value came to 37 fold and the IC50 was determined as 220 nM. Besides, in assay [2], the IC50 came out at 8200 nM.
For the molecule `C[C@@H]1CN(Cc2ccc(C(=O)NO)cc2)C[C@H](C)N1Cc1cccc(-c2cccnc2)c1` [Compound 344, 4-(((3R,5S)-3,5-dimethyl-4-(3-(pyridin-3-yl)benzyl)piperazin-1-yl)methyl)-N-hydroxybenzamide], in assay [1], the “HDAC6 selectivity (fold)” value is reported as 481 fold and the IC50 amounted to 12 nM. Further, in assay [2], the IC50 is 5800 nM.
For the molecule `C[C@@H]1CN(Cc2ccc(C(=O)NO)cc2)C[C@H](C)N1C(=O)Oc1ccccc1` [Compound 177, phenyl(2S,6R)-4-(4-(hydroxycarbamoyl)benzyl)-2,6-dimethylpiperazine-1-carboxylate], in assay [1], the “HDAC6 selectivity (fold)” value came out at 186 fold and the IC50 turned out to be 31 nM. The IC50 in assay [2] came out at 5800 nM.
In the case of `C[C@@H]1CN(Cc2cccc(C(F)(F)F)c2)C[C@H](C)N1Cc1ccc(C(=O)NO)cc1` [Compound 298, 4-(((2S,6R)-2,6-dimethyl-4-(3-(trifluoromethyl)benzyl)piperazin-1-yl)methyl)-N-hydroxybenzamide], in assay [1], the “HDAC6 selectivity (fold)” value is on record as 15 fold. In addition, the values for the IC50 in assay [1] and in assay [2] were 369 nM and 5500 nM, respectively.
As for `C[C@@H]1CN(Cc2ccc(C(=O)NO)cc2)C[C@H](C)N1C(=O)c1ccc(CN2CCN(C)CC2)cc1` [Compound 462, 4-(((3R,5S)-3,5-dimethyl-4-(4-((4-methylpiperazin-1-yl)methyl)benzoyl)piperazin-1-yl)methyl)-N-hydroxybenzamide], in assay [1], the “HDAC6 selectivity (fold)” value is on record as 12 fold and the IC50 is 264 nM. The IC50 in assay [2] stood at 3200 nM.
The like results for `C[C@@H]1CN(Cc2ccc(C(=O)NO)cc2)C[C@H](C)N1C(=O)c1cccc(C2=CCC(C)(C)CC2)c1` [Compound 247, 4-(((3R,5S)-4-(4′,4′-dimethyl-2′,3′,4′,5′-tetrahydro-[1,1′-biphenyl]-3-carbonyl)-3,5-dimethylpiperazin-1-yl)methyl)-N-hydroxybenzamide] were, in that order, 30 fold, 441 nM and 13300 nM.
For `C[C@@H]1CN(Cc2ccc(C(=O)NO)cc2)C[C@H](C)N1Cc1ccc(CN2CC[C@@H](F)C2)cc1` [Compound 411, 4-(((3R,5S)-4-(4-(((R)-3-fluoropyrrolidin-1-yl)methyl)benzyl)-3,5-dimethylpiperazin-1-yl)methyl)-N-hydroxybenzamide] the same measures were 538 fold, 8 nM and 4300 nM.
Take `C[C@@H]1CN(Cc2ccccc2C2=CCOCC2)C[C@H](C)N1Cc1ccc(C(=O)NO)cc1` [Compound 351, 4-(((2S,6R)-4-(2-(3,6-dihydro-2H-pyran-4-yl)benzyl)-2,6-dimethylpiperazin-1-yl)methyl)-N-hydroxybenzamide]: in assay [1], the “HDAC6 selectivity (fold)” value turned out to be 15 fold and the concentration for half-maximal inhibition (IC50) was determined as 351 nM. Also, in assay [2], the IC50 was 5100 nM.
`C[C@@H]1CN(Cc2ccc(C(=O)NO)cc2)C[C@H](C)N1C(=O)c1ccccc1-c1ccncc1` [Compound 285, 4-(((3R,5S)-3,5-dimethyl-4-(2-(pyridin-4-yl)benzoyl)piperazin-1-yl)methyl)-N-hydroxybenzamide]: in assay [1], the “HDAC6 selectivity (fold)” value was determined as 75 fold and the IC50 was determined as 93 nM. In assay [2], the IC50 was determined as 7000 nM.
`C[C@@H]1CN(Cc2ccc(/C=C/C(=O)NO)cc2)C[C@H](C)N1Cc1cccc(CN2CCOCC2)c1` [Compound 472, (E)-3-(4-(((3R,5S)-3,5-dimethyl-4-(3-(morpholinomethyl)benzyl)piperazin-1-yl)methyl)phenyl)-N-hydroxyacrylamide]: in assay [1], the “HDAC6 selectivity (fold)” value came to 3 fold and the IC50 was determined as 55 nM. For the same molecule, the IC50 in assay [2] is 200 nM.
As for `CCN(CC)Cc1cccc(C(=O)N2[C@H](C)CN(Cc3ccc(C(=O)NO)cc3)C[C@@H]2C)c1` [Compound 425, 4-(((3R,5S)-4-(3-((diethylamino)methyl)benzoyl)-3,5-dimethylpiperazin-1-yl)methyl)-N-hydroxybenzamide], in assay [1], the “HDAC6 selectivity (fold)” value came out at 17 fold and the IC50 came to 86 nM. Moreover, in assay [2], the concentration for half-maximal inhibition (IC50) worked out at 1500 nM.
Regarding `C[C@@H]1CN(Cc2ccc(C(=O)NO)cc2)C[C@H](C)N1Cc1cccc(Cl)c1C(F)(F)F` [Compound 267, 4-(((3R,5S)-4-(3-chloro-2-(trifluoromethyl)benzyl)-3,5-dimethylpiperazin-1-yl)methyl)-N-hydroxybenzamide], in assay [1], the “HDAC6 selectivity (fold)” value is given as 75 fold and the IC50 is 188 nM. Further, in assay [2], the IC50 is 14200 nM.

As a reminder, the IC50 is the concentration that gives 50% inhibition.
